# In patent US20240294465A1, “NOVEL ANTI-FIBROTIC DRUGS” (HELMHOLTZ ZENTRUM MUNCHEN - DEUTSCHES FORSCHUNGSZENTRUM FUR …, priority 2021, published 2024):
# “Also recorded” adds a separate entry of the source.
# Assays:
# [1] = test system: cell shape, microtubules and actin of phLFs; experiment: Fluorescence microscopy of cell morphology and cytoskeleton (α-Tubulin, phalloidin, calcein); type: cell-based, human
# Description: FIG. 14: Dose-response relationships of N23Ps, live imaging of ECM deposition and cell-morphology switch. (A) Structural formula for Tranilast and N23Ps (example 84 and example 85) indicating 2-butoxy-substitution at R1 and IC50 values. […] Cell nuclei in blue (HOECHST). Scale bar=500 μm. […] Cell nuclei were stained by Hoechst (blue). Scale bar=50 μm. (F) Confocal images of subconfluent phLFs+TGFβ1 stained for Hoechst (blue), calcein (green) and phalloidin (red) showing round cell morphologies after treatment with example 84 as well as extensive actin cytoskeletal rearrangements (red). […] Scale bar=500 μm. Data are presented as means t SEM. Differences between groups were evaluated with paired t-tests. * p<0.05. n=3 (three different patient phLFs).
# FIG. 16: (A) Fluorescence wide-field microscopy images (10× objective in low magnification and resolution) of phLFs treated with 5 μM DMSO, 50 μM example 84 and 100 μM Tranilast, and stained for Hoechst (blue), α-Tubulin (green) and filamentous actin (red, Phalloidin). […] Scale bar=100 μm. (B) Fluorescence wide-field microscopy images (63× objective in high magnification and resolution) of phLFs treated with either 5 μM DMSO or 50 μM example 84, and stained for Hoechst (blue), a.-Tubulin (green) and filamentous actin (red, Phalloidin). […] Scale bar=[…]. iPSC=induced pluripotent stem cells. […] Scale bar=350 μm. […] Thus, the compounds of the present invention show similar effects like colchicine on microtubules (41). Therefore, the compounds of the present invention are also for use in the treatment of inflammatory diseases such as arthrolithiasis, familiar mediterranean fever and pericarditis amongst others by the inhibition of polymorphonuclear leukocyte and macrophage motility as well as intracellular vesicular transport mechanisms.
# For standard immunofluorescence staining, 5000 phLFs were seeded into 96 well imaging plates with a flat bottom (Cat #353376, BD Biosciences). After incubation, cells were fixed with either 4% PFA for 30 min at 37° C. or 100% methanol for 2 min at −20° C. […]
# [2] = test system: ECM deposition of collagen I, collagen V and fibulin 1 by phLFs+TGFβ1; experiment: 3D ECM deposition assay (collagen I, collagen V, fibulin 1), dose-response and live imaging; type: cell-based, human; settings: phLFs+TGFβ1, during 48 hours
# Method: phLFs were cultured in DMEM F-12 medium with 20% fetal bovine serum (FBS) and antibiotic supplement as mentioned above. Cells were seeded with 6000 cells/well in 384-well CellCarrier plates (Perkin Elmer, Cat #6007550). Following overnight incubation, cells were starved in serum-reduced medium (1% FBS with 0.1 mM 2-phosphoascorbate (Sigma, Cat #49752)) for 24 h. Afterwards, cells were treated with TGFβ1 (1 ng/ml) or vehicle, and additionally small molecules or appropriate vehicle controls were added. […] Fluorescenceconjugation of the collagen type 1 antibody was done by using the AlexaFluor-555 Protein Labeling Kit (Invitrogen, Cat #A20174) according to manufacturer's instructions. […]
# Following fixation, the automated imaging was achieved by using aconfocal laser scanning microscope (LSM710, Zeiss) with automated focus detection for three-dimensional image acquisition (1024 px×1024 px×9 px which equals a dimension of 1417 μm×1417 μm×16 μm). For post-acquisition analysis images were imported into IMARIS software (Bitplane) and volume detection or alternatively quantification of the mean fluorescence intensity, as well as Hoechst-stained cell nuclei were automatically counted by using Imaris' spot detection algorithm. […]
structure (smiles),measurement,setting,value
"CCCCOc1ccccc1NC(=O)/C=C/c1ccc(OC)c(OC)c1 [Example 84, (E)-N-(2-butoxyphenyl)-3-(3,4-dimethoxyphenyl)acrylamide]",cell morphology,"[1]; b48: example 84 50 μM, Tranilast 100 μM",significant changes in cell-shape and eccentricity towards round cells; also recorded: cell-shape switch towards round cell morphologies
same,actin filaments (Phalloidin),[1]; example 84 50 μM,without affecting actin filaments
same,microtubules (α-Tubulin staining),"[1]; example 84 50 μM, Tranilast 100 μM","depolymerized, that is non-filamentous, microtubules"
same,"dynamic deposition of collagen I and fibulin 1 (MFI, live imaging)",[2],inhibition of ECM deposition
